This is an account of results in ChEMBL document CHEMBL1132006, “Synthesis and biological evaluation of coumarincarboxylic acids as inhibitors of gyrase B. L-rhamnose as an effective substitute for L-noviose” (1999).

Converted amounts (≈) assume the structure as drawn.

The term MIC denotes the least concentration at which growth counts as inhibited. Read a low MIC as a more susceptible organism.

In assay [1] the test system is Staphylococcus aureus. The assay is described as follows: In vitro antibacterial activity against Staphylococcus aureus 011HT3 strain. In kind it is functional.
Assay [2] concerns Staphylococcus aureus. The assay is described as follows: In vitro antibacterial activity against Staphylococcus aureus 011HT1 Nov-R strain. In kind it is functional.
The test system of assay [3] is Staphylococcus epidermidis. In words: In vitro antibacterial activity against Staphylococcus epidermidis 012GO39 OxaTei-R strain. In kind it is functional.
The next assay relates to Streptococcus pyogenes. In words: In vitro antibacterial activity against Streptococcus pyogenes O2A1UC1 strain.
In the next assay the test system is Enterococcus faecium. In words: In vitro antibacterial activity against Enterococcus faecium 02D31P2 VanTeiEry-R strain. In kind it is functional.
Assay [4] relates to Staphylococcus aureus. The assay is described as follows: In vitro antibacterial activity against Staphylococcus aureus 011GO76 OfloOxaEry-R strain. In kind it is functional.

Take `CO[C@@H]1[C@@H](OC(=O)c2ccc(C)[nH]2)[C@@H](O)[C@H](Oc2ccc3c(CC(=O)O)cc(=O)oc3c2C)O[C@H]1C`: the minimal inhibitory concentration (MIC) against Staphylococcus aureus [1] is 10 µg/mL (≈ 19.9 µM); with Staphylococcus aureus [2], above 40 µg/mL; in assay [3], 10 µg/mL (≈ 19.9 µM); in the assay with Streptococcus pyogenes it was above 40 µg/mL; against Enterococcus faecium, above 40 µg/mL; against Staphylococcus aureus [4] it was 40 µg/mL (≈ 79.8 µM).

In the case of `CCCCCCCc1cc(O[C@@H]2O[C@@H](C)[C@H](OC)[C@@H](OC(=O)c3ccc(C)[nH]3)[C@H]2O)c(C)c2oc(=O)c(C(=O)O)cc12`, the MIC in the assay with Staphylococcus aureus [1] was found to be 0.08 µg/mL (≈ 0.137 µM); in the assay with Staphylococcus aureus [2], 5 µg/mL (≈ 8.54 µM); in assay [3], 0.3 µg/mL (≈ 0.512 µM); with Streptococcus pyogenes, 0.3 µg/mL (≈ 0.512 µM); in the assay with Enterococcus faecium, 0.6 µg/mL (≈ 1.02 µM); with Staphylococcus aureus [4], 0.3 µg/mL (≈ 0.512 µM).

`CCCCCCCc1cc(O[C@@H]2O[C@@H](C)[C@H](OC)[C@@H](OC(=O)c3ccc(C)[nH]3)[C@H]2O)c(C)c2oc(=O)c(C(=O)NS(=O)(=O)c3ccccc3)cc12`: the MIC in the assay with Staphylococcus aureus [1] was 0.15 µg/mL (≈ 0.207 µM); against Staphylococcus aureus [2] it was 2.5 µg/mL (≈ 3.45 µM); in assay [3], 0.6 µg/mL (≈ 0.828 µM); in the assay on Streptococcus pyogenes, 0.3 µg/mL (≈ 0.414 µM); in the assay with Enterococcus faecium it was 2.5 µg/mL (≈ 3.45 µM); in the assay on Staphylococcus aureus [4] it was 0.6 µg/mL (≈ 0.828 µM).

Take `CO[C@@H]1[C@@H](OC(=O)c2ccc(C)[nH]2)[C@@H](O)[C@H](Oc2ccc3c(CC(=O)O)cc(=O)oc3c2C)OC1(C)C`: the MIC was 2.5 µg/mL (≈ 4.85 µM) against Staphylococcus aureus [1]; above 40 µg/mL against Staphylococcus aureus [2]; 2.5 µg/mL (≈ 4.85 µM) in assay [3]; 10 µg/mL (≈ 19.4 µM) against Streptococcus pyogenes; above 40 µg/mL against Enterococcus faecium; 5 µg/mL (≈ 9.7 µM) in the assay on Staphylococcus aureus [4].

Regarding `CCCCCc1cc(O[C@@H]2OC(C)(C)[C@H](OC)[C@@H](OC(=O)c3ccc(C)[nH]3)[C@H]2O)c(C)c2oc(=O)c(C(=O)O)cc12`, the MIC in the assay with Staphylococcus aureus [1] is below 0.04 µg/mL; against Staphylococcus aureus [2], 2.5 µg/mL (≈ 4.37 µM); in assay [3], below 0.04 µg/mL; in the assay on Streptococcus pyogenes, below 0.04 µg/mL; in the assay with Enterococcus faecium it was 0.3 µg/mL (≈ 0.525 µM); in the assay with Staphylococcus aureus [4] it was 0.15 µg/mL (≈ 0.262 µM).

As for `CCCCCCCCCCCCc1cc(O[C@@H]2O[C@@H](C)[C@H](OC)[C@@H](OC(=O)c3ccc(C)[nH]3)[C@H]2O)c(C)c2oc(=O)c(C(=O)O)cc12`, the MIC with Staphylococcus aureus [1] is 0.08 µg/mL (≈ 0.122 µM); against Staphylococcus aureus [2] it was above 40 µg/mL; in assay [3], 40 µg/mL (≈ 61 µM); against Streptococcus pyogenes, 0.3 µg/mL (≈ 0.457 µM); in the assay with Enterococcus faecium, above 40 µg/mL; in the assay on Staphylococcus aureus [4], 5 µg/mL (≈ 7.62 µM).

`CCCCCc1cc(O[C@@H]2O[C@@H](C)[C@H](OC)[C@@H](OC(=O)c3ccc(C)[nH]3)[C@H]2O)c(C)c2oc(=O)c(C(=O)O)cc12`: the MIC against Staphylococcus aureus [1] came out at 0.6 µg/mL (≈ 1.08 µM); with Staphylococcus aureus [2], 20 µg/mL (≈ 35.9 µM); in assay [3], 0.6 µg/mL (≈ 1.08 µM); against Streptococcus pyogenes it was 1.2 µg/mL (≈ 2.15 µM); against Enterococcus faecium it was 2.5 µg/mL (≈ 4.48 µM); against Staphylococcus aureus [4], 2.5 µg/mL (≈ 4.48 µM).

For `CO[C@@H]1[C@@H](OC(=O)c2ccc(C)[nH]2)[C@@H](O)[C@H](Oc2ccc3c(C)c(CCC(=O)O)c(=O)oc3c2C)O[C@H]1C`, the MIC against Staphylococcus aureus [1] was above 40 µg/mL; in the assay with Staphylococcus aureus [2], above 40 µg/mL; in assay [3], above 40 µg/mL; with Streptococcus pyogenes, 40 µg/mL (≈ 75.5 µM); with Enterococcus faecium, above 40 µg/mL; in the assay with Staphylococcus aureus [4], above 40 µg/mL.

In the case of `CO[C@@H]1[C@@H](OC(=O)c2ccc(C)[nH]2)[C@@H](O)[C@H](Oc2ccc3c(C)c(CC(=O)O)c(=O)oc3c2C)O[C@H]1C`, the MIC against Staphylococcus aureus [1] was above 40 µg/mL; against Staphylococcus aureus [2], above 40 µg/mL; in assay [3] it was above 40 µg/mL; in the assay on Streptococcus pyogenes, 40 µg/mL (≈ 77.6 µM); in the assay with Enterococcus faecium it was above 40 µg/mL; in the assay on Staphylococcus aureus [4] it was above 40 µg/mL.

`COC(=O)Cc1cc(=O)oc2cc(O[C@@H]3O[C@@H](C)[C@H](OC)[C@@H](OC(=O)c4ccc(C)[nH]4)[C@H]3O)ccc12`: the MIC (against Staphylococcus aureus [1]; with Staphylococcus aureus [2]; in assay [3]; in the assay on Streptococcus pyogenes; against Enterococcus faecium; against Staphylococcus aureus [4]) was above 40 µg/mL in each case.

On to `CO[C@@H]1[C@@H](OC(=O)c2ccc(C)[nH]2)[C@@H](O)[C@H](Oc2ccc3cc(C(=O)O)c(=O)oc3c2C)O[C@H]1C`, for which the MIC was above 40 µg/mL against Staphylococcus aureus [1]; above 40 µg/mL with Staphylococcus aureus [2]; above 40 µg/mL in assay [3]; 40 µg/mL (≈ 82.1 µM) with Streptococcus pyogenes; above 40 µg/mL against Enterococcus faecium; above 40 µg/mL in the assay with Staphylococcus aureus [4].

With `CO[C@@H]1[C@@H](OC(=O)c2ccc(C)[nH]2)[C@@H](O)[C@H](Oc2cc(Cc3ccccc3)c3cc(C(=O)O)c(=O)oc3c2C)O[C@H]1C`, the MIC in the assay on Staphylococcus aureus [1] was 2.5 µg/mL (≈ 4.33 µM); in the assay on Staphylococcus aureus [2] it was above 40 µg/mL; in assay [3], 2.5 µg/mL (≈ 4.33 µM); in the assay with Streptococcus pyogenes, 5 µg/mL (≈ 8.66 µM); against Enterococcus faecium, 20 µg/mL (≈ 34.6 µM); in the assay with Staphylococcus aureus [4] it was 5 µg/mL (≈ 8.66 µM).

For the compound `CO[C@@H]1[C@@H](OC(=O)c2ccc(C)[nH]2)[C@@H](O)[C@H](Oc2ccc3c(CC(=O)O)cc(=O)oc3c2)O[C@H]1C`, the MIC (with Staphylococcus aureus [1]; with Staphylococcus aureus [2]; in assay [3]; in the assay on Streptococcus pyogenes; with Enterococcus faecium; against Staphylococcus aureus [4]) was above 40 µg/mL each time.

Regarding `CO[C@@H]1[C@@H](OC(=O)c2ccc(C)[nH]2)[C@@H](O)[C@H](Oc2ccc3c(C(=O)O)cc(=O)oc3c2C)O[C@H]1C`, the MIC (with Staphylococcus aureus [1]; against Staphylococcus aureus [2]; in assay [3]; in the assay on Streptococcus pyogenes; in the assay on Enterococcus faecium; in the assay on Staphylococcus aureus [4]) was above 40 µg/mL in each case.

For `CCCc1cc(O[C@@H]2O[C@@H](C)[C@H](OC)[C@@H](OC(=O)c3ccc(C)[nH]3)[C@H]2O)c(C)c2oc(=O)c(C(=O)O)cc12`, the MIC was 10 µg/mL (≈ 18.9 µM) in the assay with Staphylococcus aureus [1]; above 40 µg/mL with Staphylococcus aureus [2]; 10 µg/mL (≈ 18.9 µM) in assay [3]; above 40 µg/mL in the assay with Streptococcus pyogenes; above 40 µg/mL with Enterococcus faecium; 40 µg/mL (≈ 75.5 µM) with Staphylococcus aureus [4].

Turning to `CO[C@@H]1[C@@H](OC(=O)c2ccc(C)[nH]2)[C@@H](O)[C@H](Oc2ccc3c(O)c(NC(=O)c4ccc(O)c(CC=C(C)C)c4)c(=O)oc3c2Cl)OC1(C)C` [CHLOROBIOCIN], the MIC was below 0.04 µg/mL in the assay on Staphylococcus aureus [1]; 0.15 µg/mL (≈ 0.215 µM) against Staphylococcus aureus [2]; below 0.04 µg/mL in assay [3]; below 0.04 µg/mL against Streptococcus pyogenes; below 0.04 µg/mL in the assay with Staphylococcus aureus [4].

Take `CO[C@@H]1[C@@H](OC(N)=O)[C@@H](O)[C@H](Oc2ccc3c(O)c(NC(=O)c4ccc(O)c(CC=C(C)C)c4)c(=O)oc3c2C)OC1(C)C` [NOVOBIOCIN]: the MIC in the assay with Staphylococcus aureus [1] was below 0.04 µg/mL; in the assay with Staphylococcus aureus [2] it was 20 µg/mL (≈ 32.6 µM); in assay [3] it was 0.08 µg/mL (≈ 0.131 µM); against Streptococcus pyogenes it was 0.15 µg/mL (≈ 0.245 µM); with Enterococcus faecium it was 0.3 µg/mL (≈ 0.49 µM); in the assay with Staphylococcus aureus [4] it was below 0.04 µg/mL.
